The results in this text go back to patent US10131702B2, “Glucagon-GLP-1-GIP triple agonist compounds” (priority 2013, dated 2018).

In general, EC50 refers to the concentration giving half of the maximal effect. A word on the half-life: it is the time in which the quantity being followed falls by half. Lower therefore signals rapid decline.

Like-named read-outs stand apart in the source and are kept apart here. Peptide text beside a SMILES is read from it.

One data set deals with T1, human GLP-1 R (Homo sapiens, UniProt P43220).
T1 construct: expressed in transfected cells
The data set is described as follows: cAMP induction in HEK293 cells expressing human GLP-1 R (AlphaScreen cAMP kit). It is filed as cell-based. Particulars: average EC50, cAMP, HEK293 cells expressing human GLP-1 R, read-out: GLP1 R (EC50 in nM). On the technique in general: Alpha assays give light when donor and acceptor beads are brought close together.

A further data set has as its target T2, human GIP R (Homo sapiens, UniProt P48546).
T2 construct: expressed in transfected cells
T2 sequence (P48546 22-466): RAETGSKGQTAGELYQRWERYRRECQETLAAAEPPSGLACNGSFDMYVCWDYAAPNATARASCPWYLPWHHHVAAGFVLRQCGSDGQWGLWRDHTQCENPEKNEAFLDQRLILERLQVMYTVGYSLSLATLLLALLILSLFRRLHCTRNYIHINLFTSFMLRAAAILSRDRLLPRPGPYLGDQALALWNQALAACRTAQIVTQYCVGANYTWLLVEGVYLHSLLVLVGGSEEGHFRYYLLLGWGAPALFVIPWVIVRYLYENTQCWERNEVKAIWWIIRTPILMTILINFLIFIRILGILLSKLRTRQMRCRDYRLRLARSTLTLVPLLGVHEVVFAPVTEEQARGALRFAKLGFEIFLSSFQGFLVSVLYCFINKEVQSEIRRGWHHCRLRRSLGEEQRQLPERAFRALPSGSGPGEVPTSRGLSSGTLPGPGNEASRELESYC
Kind of data set: cAMP induction in HEK293 cells expressing human GIP R (AlphaScreen cAMP kit). It is filed as cell-based. Particulars: read-out: GIP R (EC50 in nM).

For a further data set, the target named is T3, human GCG R (Homo sapiens, UniProt P47871).
T3 construct: expressed in transfected cells
The data set is described as follows: cAMP induction in HEK293 cells expressing human GCG R (AlphaScreen cAMP kit). It is filed as cell-based. Particulars: Table 2; average EC50, cAMP, HEK293 cells expressing human GCG R; read-out: GCG R (EC50 in nM).

A further data set can be described thus: in vivo. Also on record: species or system C57BL/6J mice. The following applies: male, C57BL/6J, mouse, iv, 200 nmol/kg. The text has this:
Pharmacokinetics of Selected Compounds in Mice Method C57BL/6J mice (males with a body weight of approximately 25 g) were given a single intravenous (i.v.) bolus of each peptide to be tested. […] Blood samples were drawn by sublingual bleeding. The dosing vehicle was a phosphate buffer containing mannitol (pH 7.5). At each sampling time point, samples from two mice were drawn, i.e. 16 mice were included for each compound. The mice were euthanized immediately after blood sampling by cervical dislocation. Plasma samples were analyzed after solid phase extraction (SPE) or precipitation by liquid chromatography mass spectrometry (LC-MS/MS). Mean plasma concentrations were used for calculation of the pharmacokinetic parameters using the non-compartmental approach in Phoenix WinNonlin 6.3. Plasma terminal elimination half-life (T½) was determined as […] where λz is the magnitude of the slope of the log linear regression of the log concentration versus time profile during the terminal phase.

Data set [1] deals with human glucagon receptor (human) (UniProt P47871). The data set is described as follows: cell-based or functional assay.
Data set [2] deals with human glucagon-like peptide 1 receptor (human) (UniProt P43220). The data set is described as follows: cell-based or functional assay.
Data set [3] concerns the target human GIP receptor (human) (UniProt P48546). Kind of data set: cell-based or functional assay.
For data set [4], the target named is human glucagon-like peptide 1 receptor (human) (UniProt P43220). The data set is described as follows: cell-based or functional assay. This is another data set of the same source.
Data set [5] deals with human GIP receptor (human) (UniProt P48546). The data set is described as follows: cell-based or functional assay. This is another data set of the same source.
The mark [6] stands for this setting: Table 2b (most comprehensive data).
The mark [7] stands for this setting: Table 2b (most comprehensive data), average EC50, cAMP.

T1 sequence (P43220 24-463): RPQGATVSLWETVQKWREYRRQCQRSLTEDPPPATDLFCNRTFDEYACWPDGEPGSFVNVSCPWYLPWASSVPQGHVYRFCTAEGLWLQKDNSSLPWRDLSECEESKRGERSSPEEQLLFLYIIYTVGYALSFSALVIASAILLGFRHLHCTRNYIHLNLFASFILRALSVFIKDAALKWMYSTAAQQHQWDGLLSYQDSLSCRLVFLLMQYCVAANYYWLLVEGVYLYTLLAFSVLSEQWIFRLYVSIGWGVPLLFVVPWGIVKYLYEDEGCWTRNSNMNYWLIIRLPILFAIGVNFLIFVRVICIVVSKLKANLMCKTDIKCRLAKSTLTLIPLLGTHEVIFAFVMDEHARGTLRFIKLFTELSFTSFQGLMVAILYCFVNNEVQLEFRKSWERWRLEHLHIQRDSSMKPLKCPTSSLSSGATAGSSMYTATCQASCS
T3 sequence (P47871 26-477): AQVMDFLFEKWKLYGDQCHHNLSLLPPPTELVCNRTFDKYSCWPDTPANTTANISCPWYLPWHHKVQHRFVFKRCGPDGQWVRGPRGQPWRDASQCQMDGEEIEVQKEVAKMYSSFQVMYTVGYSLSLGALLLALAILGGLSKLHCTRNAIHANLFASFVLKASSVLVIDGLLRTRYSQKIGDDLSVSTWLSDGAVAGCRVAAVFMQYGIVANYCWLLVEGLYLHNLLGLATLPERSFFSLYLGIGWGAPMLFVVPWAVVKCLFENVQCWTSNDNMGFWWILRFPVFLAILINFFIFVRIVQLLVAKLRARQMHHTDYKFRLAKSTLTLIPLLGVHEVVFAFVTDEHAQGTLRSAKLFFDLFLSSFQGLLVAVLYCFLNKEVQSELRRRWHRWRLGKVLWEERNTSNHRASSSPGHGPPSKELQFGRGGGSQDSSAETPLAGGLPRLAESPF
Sequence of human glucagon-like peptide 1 receptor (human) (P43220 24-463): as the sequence (P43220 24-463) above
Sequence of human glucagon receptor (human) (P47871 26-477): as the sequence (P47871 26-477) above
Experimental for human GCG R: Briefly, HEK293 cells expressing the human GIP R, GLP-1 R or GCG R (stable cell lines generated through transfection of the cDNA for human GIP R, GLP-1 R or GCG R and selection of stable clones) were seeded at 30,000 cells/well in 96-well microtiter plates coated with 0.01% poly-L-lysine, and grown for 1 day in culture in 200 μl growth medium (DMEM, 10% FCS, Penicillin (100 IU/ml), Streptomycin (100 μg/ml)). On the day of analysis, growth medium was removed and the cells were washed once with 150 μl Tyrode's buffer (Tyrode's Salts (9.6 g/l), 10 mM HEPES, pH 7.4). […] The Assay buffer was removed and cells are lysed in 80 μl Lysis buffer (0.1% w/v BSA, 5 mM HEPES, 0.3% v/v Tween-20) per well. From each well 10 μl of lysed cells were transferred to a 384-well plate and mixed with 15 μl bead-mix (1 Unit/15 μl anti-cAMP Acceptor Beads, 1 Unit/15 μl Donor Beads, and 1 Unit/15 μl Biotinylated cAMP in Assay Buffer). The plates were mixed and incubated in the dark for an hour at room temperature before measuring using an Envision™ plate reader (Perkin-Elmer).
The resulting cAMP curves were plotted as absolute cAMP concentrations (nM) over log (test compound concentration) and analyzed using the curve fitting program XLfit.
Parameters calculated to describe both the potency as well as the agonistic activity of each test compound on the receptors were:
EC50, a concentration resulting in a half-maximal elevation of cAMP levels, reflecting the potency of the test compound.

As for `CCCCCCCCCCCCCCCC(=O)N[C@@H](CCC(=O)NCCCC[C@H](NC(=O)[C@H](CCCCN)NC(=O)[C@H](CCC(=O)O)NC(=O)[C@H](CC(C)C)NC(=O)[C@H](Cc1ccc(O)cc1)NC(=O)[C@@H](NC(=O)[C@H](CO)NC(=O)[C@H](Cc1ccc(O)cc1)NC(=O)[C@H](CC(=O)O)NC(=O)[C@H](CO)NC(=O)[C@@H](NC(=O)[C@H](Cc1ccccc1)NC(=O)[C@@H](NC(=O)CNC(=O)[C@H](CCC(N)=O)NC(=O)C(C)(C)NC(=O)[C@@H](N)Cc1ccc(O)cc1)[C@@H](C)O)[C@@H](C)O)[C@@H](C)CC)C(=O)N[C@@H](C)C(=O)N[C@@H](C)C(=O)N[C@@H](CCCCN)C(=O)N[C@@H](CCC(=O)O)C(=O)N[C@@H](Cc1ccccc1)C(=O)N[C@H](C(=O)N[C@@H](CCC(=O)O)C(=O)N[C@@H](Cc1c[nH]c2ccccc12)C(=O)N[C@@H](CC(C)C)C(=O)N[C@@H](CC(C)C)C(=O)N[C@@H](CO)C(=O)N[C@@H](C)C(=O)NCC(=O)N1CCC[C@H]1C(=O)N[C@@H](CO)C(=O)N[C@@H](CO)C(=O)NCC(=O)N[C@@H](C)C(=O)N1CCC[C@H]1C(=O)N1CCC[C@H]1C(=O)N1CCC[C@H]1C(=O)N[C@@H](CO)C(N)=O)C(C)C)C(=O)O` [Compound 32] (HELM PEPTIDE1{Y.[Aib].Q.G.T.F.T.S.D.Y.S.I.Y.L.E.K.K.A.A.K.E.F.V.E.W.L.L.S.A.G.P.S.S.G.A.P.P.P.S.[am]}|PEPTIDE2{[CCCCCCCCCCCCCCCC(=O)[*:2]].[gGlu]}$PEPTIDE1,PEPTIDE2,17:R3-2:R2$$$V2.0), the half-maximal effective concentration (EC50) is 0.015 nM on human GLP-1 R (Table 2); 0.15 nM at human GLP-1 R (setting [6]); 0.044 nM at human GIP R (Table 2, average EC50, cAMP); 0.015 nM at human GIP R (setting [7]); 0.15 nM on human GCG R. The molecule also had a half-life in the data set “in vivo” of 246 min.

On to `CCCCCCCCCCCCCCCC(=O)N[C@@H](CCC(=O)NCCCC[C@H](NC(=O)[C@H](CCC(=O)O)NC(=O)[C@H](CC(=O)O)NC(=O)[C@H](CC(C)C)NC(=O)[C@H](Cc1ccc(O)cc1)NC(=O)[C@@H](NC(=O)[C@H](CO)NC(=O)[C@H](Cc1ccc(O)cc1)NC(=O)[C@H](CC(=O)O)NC(=O)[C@H](CO)NC(=O)[C@@H](NC(=O)[C@H](Cc1ccccc1)NC(=O)[C@@H](NC(=O)CNC(=O)[C@H](CCC(N)=O)NC(=O)C(C)(C)NC(=O)[C@@H](N)Cc1ccc(O)cc1)[C@@H](C)O)[C@@H](C)O)[C@@H](C)CC)C(=O)N[C@@H](C)C(=O)N[C@@H](C)C(=O)N[C@@H](Cc1c[nH]cn1)C(=O)N[C@@H](CC(=O)O)C(=O)N[C@@H](Cc1ccccc1)C(=O)N[C@H](C(=O)N[C@@H](CCC(=O)O)C(=O)N[C@@H](Cc1c[nH]c2ccccc12)C(=O)N[C@@H](CC(C)C)C(=O)N[C@@H](CC(C)C)C(=O)N[C@@H](CO)C(=O)N[C@@H](C)C(N)=O)C(C)C)C(=O)O` [Compound 28] (HELM PEPTIDE1{Y.[Aib].Q.G.T.F.T.S.D.Y.S.I.Y.L.D.E.K.A.A.H.D.F.V.E.W.L.L.S.A.[am]}|PEPTIDE2{[CCCCCCCCCCCCCCCC(=O)[*:2]].[gGlu]}$PEPTIDE1,PEPTIDE2,17:R3-2:R2$$$V2.0), for which the EC50 was determined as 0.058 nM at human GLP-1 R (Table 2); 0.16 nM at human GLP-1 R (setting [6]); 0.054 nM on human GIP R (Table 2, average EC50, cAMP); 0.058 nM at human GIP R (setting [7]); 0.16 nM on human GCG R. The molecule further had a half-life in the data set “in vivo” of 468 min.

B1: Compound 15 (peptide)
peptide: YXQGTFTSDYSIYLEKKAAHDFVEWLLSA
HELM: PEPTIDE1{Y.[Aib].Q.G.T.F.T.S.D.Y.S.I.Y.L.E.K.K.A.A.H.D.F.V.E.W.L.L.S.A.[am]}$$$$V2.0
SMILES: CC[C@H](C)[C@H](NC(=O)[C@H](CO)NC(=O)[C@H](Cc1ccc(O)cc1)NC(=O)[C@H](CC(=O)O)NC(=O)[C@H](CO)NC(=O)[C@@H](NC(=O)[C@H](Cc1ccccc1)NC(=O)[C@@H](NC(=O)CNC(=O)[C@H](CCC(N)=O)NC(=O)C(C)(C)NC(=O)[C@@H](N)Cc1ccc(O)cc1)[C@@H](C)O)[C@@H](C)O)C(=O)N[C@@H](Cc1ccc(O)cc1)C(=O)N[C@@H](CC(C)C)C(=O)N[C@@H](CCC(=O)O)C(=O)N[C@@H](CCCCN)C(=O)N[C@@H](CCCCN)C(=O)N[C@@H](C)C(=O)N[C@@H](C)C(=O)N[C@@H](Cc1c[nH]cn1)C(=O)N[C@@H](CC(=O)O)C(=O)N[C@@H](Cc1ccccc1)C(=O)N[C@H](C(=O)N[C@@H](CCC(=O)O)C(=O)N[C@@H](Cc1c[nH]c2ccccc12)C(=O)N[C@@H](CC(C)C)C(=O)N[C@@H](CC(C)C)C(=O)N[C@@H](CO)C(=O)N[C@@H](C)C(N)=O)C(C)C
Consider B1, for which the EC50 (cAMP induction) in data set [1] is 0.058 nM; in data set [2], 0.058 nM; in data set [3], 0.014 nM; in [4] it was 0.016 nM; in data set [5], 0.025 nM.
